Results on nine compounds are retold here after patent US4376783A, “Acylated guanidines and medicaments containing them” (Compagnie Francaise de Sucerie, priority 1980, dated 1983).

Entries after “also recorded” stand apart in the source; their conditions may differ.

A word on the LD50: it is the dose expected to kill half of the subjects tested.

Data set [1] deals with isoproterenol-induced cardio-acceleration and hypotension. The note with it: statement on the comparison drug; cited from earlier work.
Data set [2] in a line: Pharmacological tests: cardiac stimulant effect. The note with it: at relatively high doses (of the order of 50 mg). The class given is in vivo. From the text: Pharmacological tests have shown also that:
Data set [3] deals with isoproterenol-induced cardio-acceleration and hypotension. Put plainly: Beta-blocking and sympathomimetic activity against isoproterenol-induced cardio-acceleration and hypotension in anaesthetised dogs. The class given is in vivo, dog. Particulars: for sympathomimetic activity / beta-blocking effect: product perfused i.v. at 25 mcg/kg/min, compared with Pindolol; for sympathomimetic activity: seen on cessation of isoprenaline; for beta-blocking effect: isoproterenol perfusion 0.2 mcg/kg/min; for beta-blocking properties relative to those of Pindolol: % of the beta-blocking properties of Pindolol, 25 mcg/kg/min i.v. As to the method:
These tests have been carried out on dogs (of both sexes) of weight comprised between 10 and 25 kg. These dogs were anesthetised by an injection of Pentobarbital (0.1 ml/kg of a 6% solution) and Chloralose (80 mg/kg). The blood pressure was recorded by means of a catheter inserted into the tibial artery and connected to a pressure cell, this pressure being recorded on a Beckman dynograph at the same time as an electrocardiogram; the latter enables the heart rhythm and the heart rate to be checked, integrated by a cardiotachometer.
The blood pressure and the electrocardiogram were first followed for five minutes. Then an isoproterenol solution was perfused into a cephalic vein, at the rate of 0.2 mcg/kg/min, namely 1 ml/min. After fiveperfusing for five minutes, the heart reached a tachycardiac level. At this moment, another perfusion was connected (into the cephalic vein of the other paw) of a Pindolol solution or of the product under study. The compounds of the invention was solubilized in 4 ml of DMF. The volume necessary for the perfusion was obtained by completing it with a 25% DMF solution in distilled water. All the products were injected at the rate of 25 mcg/kg/min. The
The extent to which the products were capable of antagonising the cardio-acceleration on the one hand and the hypotension on the other hand was examined.
After 35 minutes of perfusion, the isoprenaline injection was stopped. The Pindolol perfusion or that of the compound under study was interrupted after 40 minutes.

The test system of the next data set is isolated bronchi. Put plainly: Tests on isolated bronchi (bronchial level).
A short description of data set [4]: Acute toxicity by the oral route in the mouse. The note with it: in vivo, po, LD 50. The class given is in vivo. As to the method:
(§1) As for its toxicity, for the determination of which experiments were carried out on two animal species, namely the rat of the OFA strain and the mouse of the OF1 strain, by two routes of administration namely the oral route and the intravenous route, the results obtained were as follows:
(§2) ACUTE TOXICITY OF THE PRODUCT S.C.S. 149 A ADMINISTERED BY THE ORAL ROUTE IN THE MOUSE
(§3) Death took place within 48 hours after treatment
(§4) The product was solubilized, for oral administration, in 2% CMC in water; the volume administered was 25 ml/kg in the mouse and 5 ml/kg in the rat for the dose of 1 g/kg, 10 ml/kg for 2 g/kg and 20 ml/kg for 3.5 and 5 g/kg.
(§5) The product was administered by oesophagal intubation.
(§6) The product was injected at the level of the caudal vein. Before administration of the product, the animals were kept fasting for 16 to 17 hours.

Another data set deals with mouse. Put plainly: Acute toxicity by the oral route in the mouse. Type of data set: in vivo. As to the method:
as §1, §2, §3, §4, §5, §6

A short description of data set [5]: Acute toxicity by the intravenous route in the rat. The class given is in vivo. Particulars: in vivo, iv, LD 50. As for the experimental part:
as §1
(§7) ACUTE TOXICITY OF THE PRODUCT S.C.S. 149 ADMINISTERED BY THE INTRAVENOUS ROUTE IN THE RAT
(§8) Death took place within 48 hours after administration of the product.
(§9) For the intravenous route, the product was solubilized in:
(§10) PEG 400+sterile water (1/3+2/3) in the rat.
(§11) The volume administered was:
as §6

In data set [6] the test system is rat. Put plainly: Acute toxicity by the intravenous route in the rat. Type of data set: in vivo. As to the method:
as §1, §7, §8, §9, §10, §11, §6

Data set [7] can be described thus: Acute toxicity by the intravenous route in the mouse. The note with it: in vivo; for LD50 at 48 h: 48 hours after treatment; for LD50 at 336 h: 14 days after treatment. As to the method: as §1
ACUTE TOXICITY OF THE PRODUCT S.C.S. 149 ADMINISTERED BY THE INTRAVENOUS ROUTE IN THE MOUSE
ACUTE TOXICITY OF THE S.C.S. 149 PRODUCT ADMINISTERED BY THE INTRAVENOUS ROUTE IN THE MOUSE
LD 50 14 days after treatment.
as §9
sterile water in the mouse
as §11, §6

For another data set, the system named is dogs. Put plainly: Six-month toxicological test in dogs. The class given is in vivo. Particulars: dogs of both sexes, daily for six months. As to the method:
(§12) Also, toxicological tests have been carried out on 32 dogs (of both sexes) and 160 rats (of both sexes) for six months and have shown that S.C.S. 149 may be tolerated by the rats at a maximum daily dose of 500 mg/kg and by the dogs at a maximum daily dose of 100 mg/kg.

Another data set relates to rats. Kind of data set: Six-month toxicological test in rats. Type of data set: in vivo. The note with it: rats of both sexes, daily for six months. As for the experimental part: as §12
A further data set concerns beta 1 (isolated atria). Put plainly: Tests on isolated atria (cardiac level).
Data set [8] can be described thus: Acute toxicity by the oral route in the rat. The class given is in vivo. Particulars: in vivo, po, LD 50. As for the experimental part:
as §1
(§13) ACUTE TOXICITY OF THE S.C.S. 149 PRODUCT ADMINISTERED BY THE ORAL ROUTE IN THE RAT
(§14) Death occured within 48 hours after the treatment.
as §4, §5, §6

Data set [9] has as its system rat. Put plainly: Acute toxicity by the oral route in the rat. Type of data set: in vivo. As for the experimental part:
as §1, §13, §14, §4, §5, §6

Take `CC(C)NCC(O)COc1cccc2[nH]ccc12` (stereo not drawn) [Pindolol]: in [1], the “intrinsic sympathomimetic action among beta-blocking agents currently used in therapeutics” value is given as “intrinsic sympathomimetic action is greatest”.
`CCCCNC(=O)N(CC(O)COc1cccc2ccccc12)C(C)C` (stereo not drawn) [SCS 128]: in data set [2], the cardiac stimulant effect result is reported as “cardiac stimulant effects; also recorded: cardiac stimulants”.
With `CC(C)N(CC(O)COc1cccc2ccccc12)C(N)=O` (stereo not drawn) [SCS 131], in [2], the cardiac stimulant effect entry is on record as “cardiac stimulant effects; also recorded: cardiac stimulants”.
With `CCOC(=O)NC(=N)N(CC(O)COc1ccccc1Cl)C1CCCCC1` (stereo not drawn) [SCS 146], the sympathomimetic activity result in data set [3] is given as “sympathomimetic action; also recorded: considerable sympathomimetic activity”.
For the compound `CCOC(=O)NC(=N)N(CC(O)COc1ccc(Cl)cc1)C1CCCCC1` (stereo not drawn) [SCS 147], the sympathomimetic activity entry in data set [3] was “sympathomimetic activity still greater than that of the preceding compound”; in [3] (listed as 147) it was “sympathomimetic action”.
On to `CCOC(=O)NC(=N)N(CC(O)COc1ccc(Cl)cc1)C(C)C` (stereo not drawn) [SCS 148], for which, in [3], the beta-blocking effect entry was “certain betablocking action masked by intrinsic sympathomimetic properties” and the sympathomimetic activity entry is recorded as “intrinsic sympathomimetic properties”. For the same compound, the sympathomimetic activity result in data set [3] (listed as 148) is “sympathomimetic action”.
As to `Cc1ccccc1OCC(O)CN(C(=N)NC(=O)c1ccccc1)C(C)C` (stereo not drawn) [SCS 149], the “beta-blocking properties relative to those of Pindolol” value in data set [3] is reported as “about 60%”. Moreover, the beta-blocking effect result in [3] is on record as “undisputable beta-blocking properties”; in [3] (listed as 149), “beta-blocking effects”. For the same compound, the sympathomimetic activity result in data set [3] was “intrinsic sympathomimetic effects”. For the same compound, in the data set with isolated bronchi, the “blocking activity, type at the bronchial level” value is “of the competitive type”. The LD50 at 48 h worked out at 560 mg/kg in data set [4]; 35.3 mg/kg in data set [5]; 38.8 mg/kg in data set [7] (female mice); 37.2 mg/kg in [7] (male mice); 3330 mg/kg in [8]. In addition, the “LD 50” value with mouse (in vivo, po, 48 h) came out at 604.81 mg/kg; in the data set with rat [6] (in vivo, iv, 48 h) it was 40.37 mg/kg; with rat [9] (in vivo, po, 48 h) it was 2932.6 mg/kg. Moreover, the “time of death after treatment” value in the data set with mouse (oral) and with rat [9] (oral) was not above 48 h throughout. In the data set with rat [6] (intravenous), the “time of death after administration” value is not above 48 h. The LD50 at 336 h in data set [7] (female mice) came out at 38.1 mg/kg; in data set [7] (male mice) it was 37.2 mg/kg. The figures for the “maximum tolerated daily dose” value with dogs and in the data set on rats were 100 mg/kg and 500 mg/kg, respectively. Besides, in the data set with beta 1 (isolated atria), the “beta 1 blocking activity, type at the cardiac level” value is given as “beta 1 blocking activity of competitive type”.
Turning to `CCOC(=O)NC(=N)N(CC(O)COc1ccccc1C)C(C)C` (stereo not drawn) [SCS 150], in data set [3], the “beta-blocking properties relative to those of Pindolol” value was “about 70%”, the beta-blocking effect result is “adrenergic beta-blocking properties” and the sympathomimetic activity result is “intrinsic sympathomimetic effects”. Further, in [3] (listed as 150), the beta-blocking effect entry was “beta-blocking effects”.
As for `CCOC(=O)NC(=N)N(CC(O)COc1ccccc1C)C1CCCCC1` (stereo not drawn) [SCS 151], the sympathomimetic activity entry is given as “sympathomimetic characteristics” in [3] and “sympathomimetic action” in [3] (listed as 151).
